In publication PMC12186257, “Serendipitous and Systematic Chemoproteomic Discovery of MBLAC2, HINT1, and NME1‑4 Inhibitors from Histone Deacetylase-Targeting Pharmacophores” (ACS Chemical Biology, 2025):

Key:
[1] = molecular target: T1, GATD3A (Homo sapiens, UniProt P0DPI2); assay: chemoproteomic competition assay (MV4-11/SW620 lysate, iA/iC/iQ beads, MS readout); assay type: binding; details: nine-dose competition assay; range stated for ALDH2 and GATD3A together
T1 construct: incubated at increasing concentrations with a mixture of lysates of MV4–11 and SW620 cells; endogenous in cells; host or cells: mixed lysate of MV4-11 and SW620 cells
T1 sequence (P0DPI2 42-268): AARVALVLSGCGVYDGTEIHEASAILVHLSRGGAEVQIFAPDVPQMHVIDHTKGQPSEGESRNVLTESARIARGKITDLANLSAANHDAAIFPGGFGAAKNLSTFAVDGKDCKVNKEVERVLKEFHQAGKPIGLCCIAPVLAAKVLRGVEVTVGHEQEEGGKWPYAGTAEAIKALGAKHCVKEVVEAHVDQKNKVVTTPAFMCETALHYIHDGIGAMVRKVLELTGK
Procedure: (§1) MBLAC2 is a metalloenzyme predicted to harbor one or two Zn^2+ ions in its active site. […] In this assay, compounds of interest are incubated at increasing concentrations with a mixture of lysates of MV4–11 and SW620 cells. The compound-treated lysates are then mixed with bead-immobilized hydroxamic acid-containing compounds iA, iC, and iQ (immobilized Quisinostat), which pull down compound-binding proteins such as HDACs, MBLAC2, ISOC1/2, ALDH2, and GATD3A (Figure a) that can be identified and quantified by mass spectrometry (MS). Proteins targeted by the library compounds in a preincubation step are prevented from being pulled down by the immobilized probes, leading to a dose-dependent reduction in MS signal. Initially, 12 metal-chelating compounds were profiled at two concentrations (10 μM and 100 μM) (Figure S3).
(§2) Chemoproteomic competition assays
(§3) Sample preparation. […]
(§4) LC-MS/MS. The different sample types were measured with different LC-MS/MS settings. MBLAC2 2-dose competition assays were measured with the Lumos1 setup, MBLAC2 9-dose competition assays were measured with the Lumos2 setup, and kinobeads assays were measured with the Eclipse setup.
(§5) Peptides were analyzed via LC–MS/MS on a Dionex Ultimate3000 nano HPLC coupled to either one of two Orbitrap Fusion Lumos mass spectrometers, or to an Orbitrap Eclipse mass spectrometer, operated via the Thermo Scientific Xcalibur software. […]
(§6) In Lumos settings, up to 12 peptide precursors were isolated in (isolation width of 1.2 Th for Lumos1 and 1.7 for Lumos2, maximum injection time of 75 ms, AGC value of 1e5 for Lumos1 and 2e5 for Lumos2), fragmented by HCD using 30% normalized collision energy (NCE) and analyzed in the Orbitrap at a resolution of 15,000 (Lumos2) or 30,000 (Lumos1). […] Peptides were isolated in the quadrupole with an isolation offset of 1.2 (isolation width of 1.2 Th, maximum injection time of 54 ms, AGC target of 200%) and fragmented by HCD with an NCE of 30% and analyzed in the Orbitrap at a resolution of 30,000. […]

[2] = molecular target: T2, ALDH2 (Homo sapiens, UniProt P05091); assay: as above; assay type: binding; details: nine-dose competition assay; range stated for ALDH2 and GATD3A together
T2 construct: incubated at increasing concentrations with a mixture of lysates of MV4–11 and SW620 cells; endogenous in cells; host or cells: mixed lysate of MV4-11 and SW620 cells
T2 sequence (P05091 18-517): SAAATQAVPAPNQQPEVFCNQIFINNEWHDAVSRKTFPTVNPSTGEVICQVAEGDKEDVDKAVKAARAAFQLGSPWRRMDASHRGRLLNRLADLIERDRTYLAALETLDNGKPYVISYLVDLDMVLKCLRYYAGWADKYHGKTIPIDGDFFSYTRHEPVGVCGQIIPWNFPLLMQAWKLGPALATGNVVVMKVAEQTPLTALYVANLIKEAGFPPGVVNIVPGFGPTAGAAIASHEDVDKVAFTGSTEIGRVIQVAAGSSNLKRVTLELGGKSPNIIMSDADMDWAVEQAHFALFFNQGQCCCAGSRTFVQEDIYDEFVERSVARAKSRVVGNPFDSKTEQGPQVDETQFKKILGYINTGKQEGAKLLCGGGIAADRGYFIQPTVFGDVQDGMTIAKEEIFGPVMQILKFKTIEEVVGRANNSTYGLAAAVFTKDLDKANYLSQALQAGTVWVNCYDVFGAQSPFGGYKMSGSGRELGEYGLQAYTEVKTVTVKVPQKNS
Procedure: as §1, §2, §3, §4, §5, §6

Which EC50 [1] does the source give for `CC(C)Cc1ccc(C(C)C(=O)NO)cc1` (centres unmarked) [Ibuproxam] here?
The EC50 was 23 to 30 µM.

What about the EC50 [2] of the same compound?
Its EC50 is 23 to 30 µM.
